From patent publication US20080161294A1, “Urea derivative, medicinal composition containing the same, and medicinal use of these” (priority 2005, published 2008)

Assays:
[1] = molecular target: T1, human V2 receptor (Homo sapiens, UniProt P30518); experiment: Binding experiment for human V2 receptor ([3H]-AVP displacement, CHO cell membranes); set-up: purchased Packard BioScience; host or cells: CHO cell membranes; conditions: inhibition of [3H]-AVP binding, CHO cell membranes expressing human V2 receptor; Ki calculated from IC50 and Kd; read-out: Affinity to human V2 receptor Ki
T1 sequence (P30518 whole entry): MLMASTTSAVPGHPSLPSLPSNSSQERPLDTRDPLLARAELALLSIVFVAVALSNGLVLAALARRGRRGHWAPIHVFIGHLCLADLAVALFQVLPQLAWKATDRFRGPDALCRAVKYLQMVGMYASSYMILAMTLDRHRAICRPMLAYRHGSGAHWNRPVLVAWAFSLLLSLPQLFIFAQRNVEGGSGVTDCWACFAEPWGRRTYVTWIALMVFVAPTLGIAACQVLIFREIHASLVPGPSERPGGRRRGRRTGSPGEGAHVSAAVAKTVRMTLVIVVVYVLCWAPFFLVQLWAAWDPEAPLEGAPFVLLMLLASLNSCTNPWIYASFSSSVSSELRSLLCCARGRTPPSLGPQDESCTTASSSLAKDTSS
Procedure: Binding Experiment for Human V2 Receptor
Test compounds were dissolved in dimethylsulfoxide at 10 mM. The affinities for human V2 receptor were determined by an inhibition against [^3H]-Arginie vasopressin (AVP) (Perkin elmer Japan) binding to the human V2 receptor using CHO cell membranes expressed human V2 receptor (Packard BioScience). Cell membranes suspension was prepared by suspending the cell membranes as mentioned above with Assay buffer (50 mM Tris-HCl, 10 mM MgCl2, 0.1% bovine serum albumin (BSA), pH7.4) at an adequate protein concentration. The test compound solutions were prepared by diluting the dimethylsulfoxide solution of the test compound as mentioned above with Assay buffer at final concentration of 10 nM, 100 nM, 1 μM and 10 μM (in this diluting procedure, concentration of dimethylsulfoxide was adjusted to be 0.5% at each concentration of the test compound). Cell membranes suspension (50 μL), 3 nM of [^3H]-AVP (50 μL), Assay buffer (50 μL) and the solution of the test compounds at each concentrations (50 μL) were added to MultiScreen 96-well plate (Millipore) and the mixture was incubated for an hour at 25° C. with shaking slightly. After filtration by aspiration, the plate was washed with ice-cold washing buffer (50 mM Tris-HCl, 10 mM MgCl2, pH 7.4) for three times. After dry the plate, Microscinti-20 (Packard) was added to each well and the plate was shaken slightly, and then radioactivities of each well were counted with a micro plate scintillation counter, TopCount (Packard). Non-specific binding of [^3H]-AVP for cell membranes was determined by adding 1 μM of cold AVP substituted for the test compounds. The concentration of the test compounds inhibiting the specific binding of [^3H]-AVP by 50% was considered as IC50 value.
The Calculation of Kd Value of [^3H]-AVP for the Cell Membranes Expressed Human V2 Receptor
The suspension of the cell membranes expressed human V2 receptor was prepared with diluting adequately with the Assay buffer as mentioned above. In consideration for the radioactivity of [^3H]-AVP, six different concentrations (final concentration; ranging from approximately 100 pM to 6000 pM) of [^3H]-AVP were prepared by serial dilution by from 2 to 3 fold with the Assay buffer. The cell membranes suspension (50 μL), each concentrations of [^3H]-AVP (50 μL), the Assay buffer (50 μL) and 1 μM of cold AVP or the Assay buffer (50 μL) were added to MultiScreen 96-well plate (Millipore) and the mixture was incubated for an hour at 25° C. with shaking slightly. The specific bindings (B value) of each concentrations of the [^3H]-AVP were determined by the method as mentioned above and free-bound contents (F value) at each concentrations of the [^3H]-AVP were determined. The Kd value was calculated by Scatchard analysis using the B value and the F value.

[2] = molecular target: T1, human V2 receptor; experiment: Study to confirm the agonism of human V2 receptor (intracellular Ca2+, HEK293 cells coexpressing human V2 receptor and Gqs chimeric protein); format: cell-based; set-up: expressed in transfected cells; host or cells: HEK293 cells (American Type Culture Collection), transient transfection with pCI-neo/hV2 and pLEC-Gqs5; conditions: for EC50: intracellular Ca2+ response, HEK293 cells coexpressing human V2 receptor and Gqs; for I A (intrinsic activity): maximum response relative to AVP = 1.00
Procedure: The Study to Confirm the Agonism of Human V2 Receptor
The experiment to confirm the response of the test compounds to human V2 receptor was carried out using the cells prepared as described below in order to use this confirmation study to see the agonism of human V2 receptor of the test compounds.
The test compounds were dissolved in dimethylsulfoxide at 10 mM and solutions of the test compounds were prepared by 10-fold serial dilution with the Assay buffer (0.1% BSA, 20 mM HEPES/Hank's balanced salt solution, pH 7.4) at the concentration of 0.1 nM to 10 μM, which were used in this study.
Human V2 receptor couples with Gs protein, one of the G-coupling protein, and consequently produces cyclic adenosine 3′, 5′-monophosphate (cAMP) via adenylate cyclase. This cAMP produce can be substituted to intracellular increase of Ca^2+ with coexpressing Gqs, a chimeric protein, and human V2 receptor (Mol. Pharmacol., Vol. 50, pp. 885-890, 1996). The responses of the test compounds for human V2 receptor were quantified by measuring this intracellular Ca^2+. The changes of intracellular Ca^2+ after adding the test compounds at each concentration as mentioned above (0.1 nM to 10 μM) were measured with a FlexStation (Molecular Devices) using a FLIPR CALCIUM ASSAY KIT (Molecular Devices).
The intrinsic activities (IA) of the test compounds were calculated from the maximum response of the test compounds as that of AVP was considered to be 1.00. In case of a full agonist, the EC50 values of the test compounds were calculated as the maximum response of AVP was considered to be 100% and in the case of a partial agonist, EC50 values of test compounds were calculated as the maximum response of own test compounds were considered to be 100%. The concentration that achieved to 50% response of the maximum response in a concentration-response curve was considered as EC50 value. The values of EC50 obtained in this study were shown in Table 84 described below as indications of the agonism of human V2 receptor.
The Preparation of the Cells Using Confirmation Study of an Agonism of Human V2 Receptor (HEK293 Cells Coexpressed Human V2 Teceptor and Gqs Chimeric Protein)
HEK293 cells (American Type Culture Collection) were incubated in the Eagle's Minimum Essential Medium (EMEM, Invitrogen) containing 1 mM sodium pyruvate, nonessential amino acids (0.1 mM), streptomycin (100 μg/mL), penicillin (100 U/mL), 10% fetal calf serum (Sanko chemicals) in an incubator with 5% CO2 at 37° C. The transfection was carried out by adding pCI-neo hV2 expression vector, expression vector inserted with the sequence coding Gqs chimeric protein (pLEC-Gqs5, LiveWare, Molecular Devices) and Lipofectamine2000 (Invitrogen), all diluted with OPTI-MEM I Reduced Serum Medium I (Invitrogen), to the cell suspension which was prepared from the confluent cells suspended with EMEM as mentioned above without antibiotics at 1×10^6 cells/mL. After the transfection, the cells (HEK293 cells coexpressed human V2 receptor and Gqs chimeric protein) were incubated in an incubator with 5% CO2 for two days and were used as cells for confirming agonism of human V2 receptor, and used for assessment of the test compounds. The expression plasmid vector of human V2 receptor represented as pCI-neo/hV2 above was constructed by the method as described below.

[3] = system: anesthetized rats infused with hypotonic solution; experiment: Antidiuretic effect on diuresis induced by hypotonic solution in anesthetized rats; format: in vivo, rat; conditions: 10 μg/kg intravenously; for Antidiuretic effect (decreasing rate of urine volume): anesthetized male SD rats, against pre value; for Duration tine: period until decreasing rate of urine volume restored to −20%
Procedure: The Study of Antidiuretic Effect
The Confirmation Study of Antidiuretic Effect on the Diuretic Activity Induced by Loading Hypotonic Solution in the Anesthetized Rats Infused with Hypotonic Solution
It has been reported that plasma AVP level was decreased with intravenous infusion of hypotonic solution (J. Endocrinol., Vol. 141, pp. 59-67, 1994). The antidiuretic effect of the test compounds in the rats induced a diuretic condition was determined by the method as reported by Angchanpen et al (Br. J. Pharmacol., Vol. 93, pp. 151-155, 1988). The test compounds were dissolved in dimethylsulfoxide at 10 mM, and used in the study. Male SD rats (200-400 g weight) were anesthetized with 100 mg/kg of Inactin (SIGMA) intraperitonealy and each cannula was inserted into trachea, jugular vein, bladder and femoral vein, respectively. The hypotonic solution (0.3% NaCl, 0.83% glucose) was infused via femoral vein at 9 mL/hour. The urine volume obtained via cannula inserted into bladder was measured every 10 minutes. After steady-state of urine volume for three 10 minutes periods, test compounds prepared as mentioned above were administered intravenously at 10 μg/kg via cannula inserted into jugular vein. Dimethylsulfoxide/saline (0.3%) was used as a vehicle. The average of urine volume measured for three 10 minutes periods before the administration was defined as the pre value (0%). After the administration of the test compounds, the urine volume was measured every 10 minutes. The antidiuretic effect, namely the decrease of the urine volume, induced by administration of test compounds was calculated from the decreasing rate of urine volume (minus %) against the pre value. Because maximum decreasing rate of the urine volume after administration of vehicle was −20% in this study, the period that decreasing rate of urine volume restored to −20% after administration of the test compounds was considered as indication of duration time of the test compounds.

[4] = system: Male SD rats; experiment: Acute toxicity test; format: in vivo; conditions: 10 mg/kg intravenously, N=2, one hour experimental period, urethane anesthesia
Procedure: Male SD rats (250-300 g weight) were divided into some groups (N=2) and each cannula was inserted into trachea and jugular vein under anesthesia with urethane (1.5 g/kg, subcutaneously). The test compound solutions were prepared with an adequate solvent to be a dosage of 10 mg/kg, and then the solution was administered intravenously via cannula. The survival rate was determined for an hour experimental period.

SMILES	Ki [1]	EC50 [2]	I A (intrinsic activity) [2]	Antidiuretic effect (decreasing rate of urine volume) [3]	Duration tine [3]	Dead [4]
C[C@@H]1CN(C(=O)c2ccc(-n3cccn3)cc2Cl)c2ccccc2CN1C(=O)NCC(=O)O [Example 3-1, {[(R)-1-(2-Chloro-4-pyrazol-1-ylbenzoyl)-3-methyl-1,2,3,5-tetrahydrobenzo[e]-1,4-diazepin-4-carbonyl]amino}acetic acid]	19.7 nM	9.4 nM	0.59	−88.7%	60 min	
C[C@@H]1CN(C(=O)c2ccc(OCCO)cc2Cl)c2ccccc2CN1C(=O)NCC(=O)O [Example 3-6]		15.4 nM	0.93			
C[C@@H]1CN(C(=O)c2ccc(-n3cccn3)cc2Cl)c2ccccc2CN1C(=O)NCCO [Example 4, N-(2-Hydroxyethyl)-(R)-1-(2-chloro-4-pyrazol-1-ylbenzoyl)-3-methyl-1,2,3,5-tetrahydrobenzo[e]-1,4-diazepin-4-carboxamide]	61.9 nM	16 nM	0.75			
C[C@@H]1CN(C(=O)c2ccc(-n3cccn3)cc2Cl)c2ccccc2CN1C(=O)NCC(N)=O [Example 5-2]	35.5 nM	7.3 nM	0.71	−83.9%	50 min	0/2
CNC(=O)CNC(=O)N1Cc2ccccc2N(C(=O)c2ccc(-n3cccn3)cc2Cl)C[C@H]1C [Example 5-3]	14 nM	9.1 nM	0.48			
C[C@@H]1CN(C(=O)c2ccc(-n3cccn3)cc2Cl)c2ccccc2CN1C(=O)NCC(=O)N(C)C [Example 5-4]		27.6 nM	0.49	−90.4%	80 min	0/2
C[C@@H]1CN(C(=O)c2ccc(-n3cccn3)cc2Cl)c2ccccc2CN1C(=O)NCC(=O)N1CCCC1 [Example 5-5]		24.9 nM	0.83	−89.4%	90 min	0/2
C[C@@H]1CN(C(=O)c2ccc(-n3cccn3)cc2Cl)c2ccccc2CN1C(=O)NCC(=O)N1CCCCC1 [Example 5-6]		17.3 nM	0.92			
C[C@@H]1CN(C(=O)c2ccc(-n3cccn3)cc2C(F)(F)F)c2ccccc2CN1C(=O)NCC(N)=O [Example 5-11]		8.6 nM	0.75			
Cc1cc(-n2cccn2)ccc1C(=O)N1C[C@@H](C)N(C(=O)NCC(N)=O)Cc2ccccc21 [Example 5-12]		6.5 nM	0.79			
C[C@@H]1CN(C(=O)c2ccc(-n3cccn3)cc2F)c2ccccc2CN1C(=O)NCC(N)=O [Example 5-15]		9.1 nM	0.71			
C[C@@H]1CN(C(=O)c2ccc(N3CCCC3)cc2Cl)c2ccccc2CN1C(=O)NCC(N)=O [Example 5-18]	27.8 nM	2.2 nM	0.89			
C[C@@H]1CN(C(=O)c2ccc(-n3cccn3)cc2Cl)c2ccc(F)cc2CN1C(=O)NCC(N)=O [Example 5-19]		15.6 nM	0.57			
